Assay results as given in patent US6936622B2, “6-phenylbenzonaphthyridines” (Altana Pharma AG, priority 2001, dated 2005).
Structures can show the parent of a compound that is named as a salt.

Legend:
PDE4 (cAMP-specific) = test: Inhibition of PDE isoenzymes: PDE4; format: biochemical; settings: cytosol of human polymorphonuclear leukocytes (PMNL), cAMP as substrate, motapizone 1 μM
Experimental: (§1) 1. Inhibition of PDE Isoenzymes
(§2) The PDE activity was determined according to Thompson et al. (Adv Cycl Nucl Res 10: 69-92, 1979) with some modifications (Bauer and Schwabe, Naunyn-Schmiedeberg's Arch Pharmacol 311: 193198, 1980). The test samples contained 20 mM Tris (pH 7.4), 5 mM MgCl2, 0.5 μM cAMP or cGMP, [^3H]cAMP or [^3H]cGMP (about 30 000 cpm/sample), the PDE isoenzyme-specific additives described in greater detail below, the indicated concentrations of inhibitor and an aliquot of the enzyme solution in a total sample volume of 200 μl. Dilution series of the compounds according to the invention were prepared in DMSO and further diluted in the samples [1:100 (v/v)], to give the desired end concentration of the inhibitors at a DMSO concentration of 1% (v/v), which for its part has only a minute effect on PDE activity.
(§3) After preincubation at 37° C. for 5 minutes, the reaction was started by addition of the substrate (cAMP or cGMP). The samples were incubated at 37° C. for a further 15 min. The reaction was terminated by addition of 50 μl 0.2 N HCl. After cooling on ice for 10 minutes and addition of 25 μg 5′-nucleotidase (snake venom from Crotalus atrox), the mixture was again incubated at 37° C. for 10 min and the samples were then applied to QAE Sephadex A-25 columns (sample volume 1 ml). The columns were eluted with 2 ml of 30 mM ammonium formate (pH 6.0). The radioactivity of the eluate was measured and corrected by the corresponding blank values (measured in the presence of denatured protein); the blank values were less than 5% of the total radioactivity. In no case did the proportion of hydrolyzed nucleotide exceed 30% of the original substrate concentration.
PDE4 (cAMP-specific) was investigated in the cytosol of human polymorphonuclear leukocytes (PMNL) [isolated from leukocyte concentrates, see Schudt et al., Arch Pharmacol 1991: 344, 682-690] using cAMP as substrate. The PDE3 inhibitor motapizone (1 μM) was used to suppress the PDE3 activity emanating from contaminated platelets.
(§4) The IC50 values were determined from the concentration-inhibition curves by nonlinear regression.

PDE3 (cGMP-inhibited) = molecular target: T1, PDE3 (cGMP-inhibited) (Homo sapiens, UniProt Q14432); test: Inhibition of PDE isoenzymes: PDE3; format: biochemical; settings: homogenates of human platelets, cAMP or cGMP as substrate; read-out: PDE3 [-log IC50, mol/l] (converted)
T1 construct: investigated in homogenates of human platelets; from tissue; host or cells: homogenates of human platelets
Experimental: as §1, §2, §3
PDE3 (cGMP-inhibited) was investigated in homogenates of human platelets (see Schudt et al., Biochem Pharmacol 1991: 42, 153-162) using cAMP or cGMP as substrate.
as §4

T1 sequence (Q14432 whole entry): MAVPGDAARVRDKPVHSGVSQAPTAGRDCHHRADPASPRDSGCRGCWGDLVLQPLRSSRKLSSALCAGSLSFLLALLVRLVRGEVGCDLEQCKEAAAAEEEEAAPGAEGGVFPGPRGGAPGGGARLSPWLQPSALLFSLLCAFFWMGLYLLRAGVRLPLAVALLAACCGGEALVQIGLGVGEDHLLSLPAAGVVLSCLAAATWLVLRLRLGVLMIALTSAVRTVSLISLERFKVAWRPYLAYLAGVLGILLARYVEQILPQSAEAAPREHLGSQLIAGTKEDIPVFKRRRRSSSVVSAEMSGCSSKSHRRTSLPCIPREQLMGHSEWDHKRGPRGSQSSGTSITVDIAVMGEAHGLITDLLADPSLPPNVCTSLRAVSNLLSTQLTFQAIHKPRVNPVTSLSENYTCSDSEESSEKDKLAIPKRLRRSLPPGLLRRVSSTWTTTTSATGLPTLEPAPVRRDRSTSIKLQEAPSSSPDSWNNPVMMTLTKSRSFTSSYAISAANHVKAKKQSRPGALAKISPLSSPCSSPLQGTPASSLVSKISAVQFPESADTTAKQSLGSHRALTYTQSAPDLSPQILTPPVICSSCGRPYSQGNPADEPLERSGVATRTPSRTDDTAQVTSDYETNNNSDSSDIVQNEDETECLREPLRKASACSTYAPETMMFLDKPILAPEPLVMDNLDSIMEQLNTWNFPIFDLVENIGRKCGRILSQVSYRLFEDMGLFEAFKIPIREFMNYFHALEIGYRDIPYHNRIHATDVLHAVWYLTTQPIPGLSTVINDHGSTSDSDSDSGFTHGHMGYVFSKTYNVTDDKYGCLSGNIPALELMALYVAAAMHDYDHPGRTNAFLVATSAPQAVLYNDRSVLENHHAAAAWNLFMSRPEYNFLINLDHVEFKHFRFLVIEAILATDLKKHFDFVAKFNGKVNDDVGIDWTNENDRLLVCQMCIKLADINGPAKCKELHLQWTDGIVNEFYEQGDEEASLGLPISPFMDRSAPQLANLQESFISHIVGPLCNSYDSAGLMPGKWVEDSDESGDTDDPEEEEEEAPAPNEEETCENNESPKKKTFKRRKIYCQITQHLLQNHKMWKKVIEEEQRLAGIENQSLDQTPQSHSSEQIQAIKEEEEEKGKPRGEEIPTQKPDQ

melting point [°C] | PDE4 [-log IC50, mol/l] (PDE4 (cAMP-specific)) | IC50 (PDE3 (cGMP-inhibited)) [nM] | SMILES
161 to 166 | – | – | COc1cc2c(cc1OC)[C@@H]1CN(C)CC[C@@H]1N=C2c1ccc(C(=O)N=C(N(C)C)N(C)C)cc1.Cl
134 to 141 | – | – | CCOc1cc2c(cc1OC)C(c1ccc(C(=O)NC(=N)N(C)C)cc1)=NC1CCN(C)CC21 (stereo not drawn) (as salt: hydrochloride) [Compound 3, N′{1-[4-((+)-cis-9-Ethoxy-8-methoxy-2-methyl-1,2,3,4,4a,10b-hexahydro[c][1,6[-naphthyridin-6-yl)phenyl]methanoyl}-N,N-dimethylguanidinedihydrochloride]
– | 8.82 | 309 | CCOc1cc2c(cc1OC)C(c1ccc(C(=O)NC(=N)NC)cc1)=N[C@H]1CCN(C)C[C@@H]21 (relative stereo) [Compound 14, N-{1-[4-((−)-cis-9-Ethoxy-8-methoxy-2-methyl-1,2,3,4,4a,10b-hexahydro-benzo[c][1,6]naphthyridin-6-yl)-phenyl]-methanoyl}-N′-methyl-guanidine]
– | 9.11 | 155 | CCOc1cc2c(cc1OC)C(c1ccc(C(=O)NC(=N)NC(C)C)cc1)=N[C@H]1CCN(C)C[C@@H]21 (relative stereo) [Compound 15, N-{1-[4-((−)-cis-9-Ethoxy-8-methoxy-2-methyl-1,2,3,4,4a,10b-hexahydro-benzo[c][1,6]naphthyridin-6-yl)-phenyl]-methanoyl}-N′-isopropyl-guanidine]
– | 8.76 | 245 | CCNC(=N)NC(=O)c1ccc(C2=N[C@H]3CCN(C)C[C@H]3c3cc(OCC)c(OC)cc32)cc1 (relative stereo) [Compound 18, N-{1-[4-((−)-cis-9-Ethoxy-8-methoxy-2-methyl-1,2,3,4,4a,10b-hexahydro-benzo[c][1,6]naphthyridin-6-yl)-phenyl]-methanoyl}-N′-ethyl-guanidine]
– | 9.50 | 132 | CCOc1cc2c(cc1OC)C(c1ccc(C(=O)NC(=N)NC3CCCCC3)cc1)=N[C@H]1CCN(C)C[C@@H]21 (relative stereo) [Compound 19, N-Cyclohexyl-N′-{1-[4-((−)-cis-9-ethoxy-8-methoxy-2-methyl-1,2,3,4,4a,10b-hexahydro-benzo [c][1,6]naphthyridin-6-yl)-phenyl]-methanoyl}-guanidine]
– | 9.01 | 129 | CCOc1cc2c(cc1OC)C(c1ccc(C(=O)N=C(N(C)C)N(C)C)cc1)=NC1CCN(C)CC21 (single isomer, unassigned) [Compound 5, N″{1-[4-((−)-cis-9-Ethoxy-8-methoxy-2-methyl-1,2,3,4,4a,10b-hexahydro[c][1.6]naphthyridin-6-yl)phenyl]methanoyl}-N,N,N′,N′-tetramethylguanidine hydrochloride]
– | 9.39 | 87.1 | CCOc1cc2c(cc1OC)C(c1ccc(C(=O)NC(=N)N(C)C)cc1)=NC1CCN(C)CC21 (stereo not drawn) [Compound 3, N′{1-[4-((+)-cis-9-Ethoxy-8-methoxy-2-methyl-1,2,3,4,4a,10b-hexahydro[c][1,6[-naphthyridin-6-yl)phenyl]methanoyl}-N,N-dimethylguanidinedihydrochloride]
– | 9.13 | 363 | CCOc1cc2c(cc1OC)C(c1ccc(C(=O)N=C(N)N3CCN(C)CC3)cc1)=NC1CCN(C)CC21 (stereo not drawn) [Compound 6, N-[1-Amino-1-(4-methylpiperazin-1-yl)methylene]-4-((+)-cis-9-ethoxy-8-methoxy-2-methyl-1,2,3,4,4a,10b-hexahydro[c][1,6]naphthyridin-6-yl)benzamide dihydrochloride]

The remaining lines, values behind:

SMILES | melting point [°C] | PDE4 [-log IC50, mol/l] (PDE4 (cAMP-specific)) | IC50 (PDE3 (cGMP-inhibited)) [nM]
CCOc1cc2c(cc1OC)C(c1ccc(C(=O)NC(=N)N3CCOCC3)cc1)=NC1CCN(C)CC21 (stereo not drawn) (as salt: hydrochloride) [Compound 1, 4-[(+)-cis-9-Ethoxy-8-methoxy-2-methyl-1,2,3,4,4a,10b-hexahydro[c][1,6]naphthyridin-yl)-N-(1-imino-1-morpholin-4-ylmethyl)]benzamide dihydrochloride] | 208 to 218 | – | –
CCOc1cc2c(cc1OC)C(c1ccc(C(=O)NC(=N)N(CC)CC)cc1)=NC1CCN(C)CC21 (stereo not drawn) (as salt: hydrochloride) [Compound 2, N′-{1-[4-((+)-cis-9-Ethoxy-8-methoxy-2-methyl-1,2,3,4,4a,10b-hexahydro[c][1,6]naphthyridin-6-yl)phenyl]methanoyl}-N,N-diethylguanidine dihydrochloride] | 194 to 203 | – | –
CCOc1cc2c(cc1OC)C(c1ccc(C(=O)NC(=N)N(C)CCO)cc1)=NC1CCN(C)CC21 (stereo not drawn) (as salt: hydrochloride) [Compound 4, N′-{1-[4-((+)-cis-9-Ethoxy-8-methoxy-2-methyl-1,2,3,4,4a,10b-hexahydro[c][1,6]naphthyridin-6-yl)phenyl]methanoyl}-N-(2-hydroxyethyl)-N-methylguanidine dihydrochloride] | 172 to 179 | – | –
CCOc1cc2c(cc1OC)C(c1ccc(C(=O)NC(=N)N)cc1)=N[C@H]1CCN(C)C[C@@H]21 (relative stereo) [Compound 7, N-{1-[4-((−)-cis-9-Ethoxy-8-methoxy-2-methyl-1,2,3,4,4a,10b-hexahydro-benzo[c]-[1,6]naphthyridin-6-yl)-phenyl]-methanoyl}guanidine] | – | 8.83 | 195
CCCNC(=N)NC(=O)c1ccc(C2=N[C@H]3CCN(C)C[C@H]3c3cc(OCC)c(OC)cc32)cc1 (relative stereo) [Compound 16, N-{1-[4-((−)-cis-9-Ethoxy-8-methoxy-2-methyl-1,2,3,4,4a,10b-hexahydro-benzo[c][1,6]naphthyridin-6-yl)-phenyl]-methanoyl}-N′-propyl-guanidine] | – | 9.65 | 166
CCOc1cc2c(cc1OC)C(c1ccc(C(=O)NC(=N)NCC(C)C)cc1)=N[C@H]1CCN(C)C[C@@H]21 (relative stereo) [Compound 17, N-{1-[4-((−)-cis-9-Ethoxy8-methoxy-2-methyl-1,2,3,4,4a,10b-hexahydro-benzo[c][1,6]naphthyridin-6-yl)-phenyl]-methanoyl}-N′-isobutyl-guanidine] | – | 9.34 | 123
CCOc1cc2c(cc1OC)C(c1ccc(C(=O)NC(=N)NCC3CCCCC3)cc1)=N[C@H]1CCN(C)C[C@@H]21 (relative stereo) [Compound 20, N-Cyclohexylmethyl-N′-{1-[4-((−)-cis-9-ethoxy-8-methoxy-2-methyl-1,2,3,4,4a,10b-hexahydro-benzo[c][1,6]naphthyridin-6-yl)-phenyl]-methanoyl}-guanidine] | – | 9.65 | 97.7
CCCCNC(=N)NC(=O)c1ccc(C2=N[C@H]3CCN(C)C[C@H]3c3cc(OCC)c(OC)cc32)cc1 (relative stereo) [Compound 21, N-Butyl-N′-{1-[4-((−)-cis-9-ethoxy-8-methoxy-2-methyl-1,2,3,4,4a,10b-hexahydro-benzo[c][1,6]naphthyridin-6-yl)-phenyl]-methanoyl}-guanidine] | – | 9.49 | 129
CCOc1cc2c(cc1OC)C(c1ccc(C(=O)NC(=N)N3CCOCC3)cc1)=NC1CCN(C)CC21 (stereo not drawn) [Compound 1, 4-[(+)-cis-9-Ethoxy-8-methoxy-2-methyl-1,2,3,4,4a,10b-hexahydro[c][1,6]naphthyridin-yl)-N-(1-imino-1-morpholin-4-ylmethyl)]benzamide dihydrochloride] | – | 9.22 | 135
CCOc1cc2c(cc1OC)C(c1ccc(C(=O)NC(=N)N(CC)CC)cc1)=NC1CCN(C)CC21 (stereo not drawn) [Compound 2, N′-{1-[4-((+)-cis-9-Ethoxy-8-methoxy-2-methyl-1,2,3,4,4a,10b-hexahydro[c][1,6]naphthyridin-6-yl)phenyl]methanoyl}-N,N-diethylguanidine dihydrochloride] | – | 9.77 | 42.7
CCOc1cc2c(cc1OC)C(c1ccc(C(=O)NC(=N)N(C)CCO)cc1)=NC1CCN(C)CC21 (stereo not drawn) [Compound 4, N′-{1-[4-((+)-cis-9-Ethoxy-8-methoxy-2-methyl-1,2,3,4,4a,10b-hexahydro[c][1,6]naphthyridin-6-yl)phenyl]methanoyl}-N-(2-hydroxyethyl)-N-methylguanidine dihydrochloride] | – | 8.34 | 1150
